How the values were obtained:
RAW264.7 macrophages [1] = assay: CellTiter-Glo Luminescent Cell Viability Assay; assay type: cell-based; details: 24-h exposure at 1–20,000 nM
Experimental: (§1) RAW264.7 cells were obtained from the National Infrastructure of Cell Line Resource of Beijing, China, and the cells used for the experiment were cultured for at least three passages. Dulbecco’s Modified Eagle’s Medium (DMEM)-F12 medium containing 10% fetal bovine serum (FBS) was employed to culture the RAW264.7 cells. RAW264.7 cells were incubated at 37°C with 5% carbon dioxide. The RAW264.7 cells were plated at 2.5×10^5 cells/well (6-well plates), 6.0×10^4 cells/well (24-well plates), and 10^4 cells/well (96-well plates). The RAW264.7 cells were plated and grown overnight; then the medium was removed and fresh DMEM-F12 contained with 0.1% DMSO (control; n=3 ) or TPHP at the concentrations of 1–20,000 nM ( n=3 per group) was added. […] Then the cells were used for the quantitative reverse transcription (qRT)-PCR, cellular cholesterol efflux assay, and foam cell formation experiment.
Cell viability was assessed using the CellTiter-Glo® Luminescent Cell Viability Assay based on the manufacturer’s instructions ( n=3 per group). Luminescence was assessed using an LB 941 TriStar multimode microplate reader (Berthold Technologies).

RAW264.7 macrophages [2] = assay: Foam cell formation (ox-LDL, BODIPY 493/503 staining) in RAW264.7 macrophages; assay type: cell-based
Experimental: as §1
RAW264.7 cells or mouse peritoneal macrophages were plated in 24-well plates at 6.0×10^4 cells/well and grown overnight. Then the medium was removed and fresh DMEM-F12 containing 10% FBS, 20μg/mL oxidized low-density lipoprotein (ox-LDL), and 0.1% DMSO (control; n=3 ) or TPHP at the concentration of 1–20,000 nM ( n=3 per group) was added. The cells were washed with PBS, followed by fixing in 4% paraformaldehyde for 30 min and staining with boron-dipyrromethene (BODIPY) 493/503 ( 20μg/mL ) and 4′,6-diamidino-2-phenylindole (DAPI; 100 ng/mL ) for 10 min. Foam cell formation was analyzed by high-content microscopy using ImageXpress® Micro XL (Molecular Devices). From each well, 25 image fields were scanned, and MetaXpress® (Molecular Devices) was used to quantify compartmentalized changes in the fluorescence of each cell.

ApoE−/− mice = assay: Atherosclerotic lesion analysis (Oil Red O) in ApoE−/− mouse model; assay type: in vivo; details: 13 weeks, p<0.01; for Area of the atherosclerotic lesion (en face lipid staining), higher than control: high-fat diet
Description: All experiments related to animals were approved by the institutional animal care and use committee of Peking University and followed the guidelines for animal experiments of the university as well as for experimental animals in China. The biological effect size of the animal experiments was based on the previous paper ([Negro Silva et al. 2017]). C57BL/6 (12 weeks old) and ApoE^−/− mice (12 weeks old) were obtained from the Beijing Vital River Laboratory Animal Technology Company. Mice used in the experiments were acclimated to the housing unit 2 weeks before they were used for experiments, and they were randomly assigned to control or TPHP treatment groups. Five animals were housed to a cage, and mice were acclimatized to the controlled environment (temperature: 22±2°C; relative humidity: 40–60%; artificial lighting: 12 h:12 h light/dark). Mice received diet and drinking water ad libitum. Body weight (BW) was measured every week during the dosing period. Forty-five C57BL/6 mice and 27 ApoE^−/− mice were used in this study. Animal protocol 1: Male C57BL/6 mice (five mice per group) were fed a basic diet (Laboratory Animal Center of the Academy of Military Medical Sciences, China). On Day 0, mice were stimulated with paraffin oil by intraperitoneal injection. From Day 1 to Day 7, mice were exposed to corn oil (control) or TPHP (dissolved in corn oil) at 40 or 200mg/kg BW by daily oral gavage. The volume of the corn oil or TPHP in corn oil administered was 5mL/kg BW. On Day 8, after the mice were anesthetized by sodium pentobarbital via intramuscular injection, peritoneal macrophages were harvested from peritoneal lavage with 4mL pre-warmed DMEM-F12 (containing 10% FBS) using a 25-gauge needle; 5–10 min later, 3–3.5mL peritoneal fluid was collected, and the cells were isolated by centrifuge at 1,000 rpm for 5 min. […] Considering that this study assessed the effects of short-term exposure to TPHP, whereas humans are exposed to TPHP over a lifelong period, the present study used exposure doses that were higher than that of human exposure from house dust. […]

[3] = system: peroxisome proliferator-activated receptor-γ (PPARγ); parameters: method as in Hu et al. 2017; Pillai et al. 2014; details: ref Hu et al. 2017; Pillai et al. 2014; cited from earlier work
[4] = system: human primary preadipocytes; parameters: method as in Tung et al. 2017; details: ref Tung et al. 2017; cited from earlier work

O=P(Oc1ccccc1)(Oc1ccccc1)Oc1ccccc1 [TPHP, triphenyl phosphate]
Cell viability (RAW264.7 macrophages [1]): no significant loss of cell viability | Intensity of foam cell staining relative to control (RAW264.7 macrophages [2]; 100 nM, p<0.01): 1.64±0.02 fold | Intensity of foam cell staining relative to control (RAW264.7 macrophages [2]; 1,000 nM, p<0.01): 1.67±0.14 fold | Intensity of foam cell staining relative to control (RAW264.7 macrophages [2]; 5,000 nM, p<0.05): 1.78±0.31 fold | Intensity of foam cell staining relative to control (RAW264.7 macrophages [2]; 10,000 nM, p<0.05): 2.08±0.45 fold | Intensity of foam cell staining relative to control (RAW264.7 macrophages [2]; 20,000 nM, p<0.05): 2.09±0.52 fold | Atherosclerotic lesion area around the aortic root versus control (ApoE−/− mice; 10 and 40 mg/kg BW): significantly higher lesion area | Area of the atherosclerotic lesion (en face lipid staining), higher than control (ApoE−/− mice; 10 mg/kg BW oral gavage): 41% | Area of the atherosclerotic lesion (en face lipid staining), higher than control (ApoE−/− mice; 40 mg/kg BW oral gavage): 83% | PPARγ activity [3]: agonist | Adipogenesis [4]: promote adipogenesis
